According to article PMC9574860, “Chemical Toolkit for PARK7: Potent, Selective, and High-Throughput” (Journal of Medicinal Chemistry, 2022):
Entries after “also recorded” stand apart in the source; their conditions may differ.

What was measured:
[1] = target: T1, PARK7 (Homo sapiens, UniProt Q99497); assay: Gel-based competition assay with probe 8RK59, PARK7 band; assay type: biochemical; design: GST (N, cleaved yes); made in house; host or cells: E. coli BL21(DE3) Rosetta2
T1 sequence (Q99497 1-189): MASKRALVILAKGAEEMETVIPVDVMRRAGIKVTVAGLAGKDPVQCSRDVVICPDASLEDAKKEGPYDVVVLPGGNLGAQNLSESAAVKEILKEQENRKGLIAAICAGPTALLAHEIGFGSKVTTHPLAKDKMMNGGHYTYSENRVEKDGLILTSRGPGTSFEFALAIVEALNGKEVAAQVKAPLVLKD
Description: To assess the inhibitory potency and selectivity of these compounds toward PARK7 and UCHL1, we performed a gel-based competition assay (Figure 3A).[36] A mixture of equal amounts of PARK7 and UCHL1 (1 μM) was treated with each of the synthesized compounds (2 μM) for 1 h, followed by incubation with fluorescent probe 8RK59 (2 μM) for 30 min. Samples were resolved by SDS-PAGE, and the gel was scanned for fluorescence. Inhibition of PARK7 or UCHL1 is reflected by the disappearance of their corresponding bands (Figure 3B). […] The inhibition potential of JYQ-88 against PARK7 was assessed in a similar assay where PARK7 was incubated with a serial dilution of JYQ-88 before treatment with probe 8RK59 (Figure 3C). A clear inhibition is visible at 0.5 μM, and full inhibition is achieved between 1 and 2 μM. […] The selectivity of JYQ-88 between UCHL1 and PARK7 was further confirmed in a direct competition assay between equal amounts of PARK7 and UCHL1 (Figure 3F). PARK7 inhibition was observed starting from 0.5 μM JYQ-88, whereas inhibition of UCHL1 was only detected at 20 μM. Since JYQ-88 and 8RK64 are enantiomers, we assumed that the interactions with PARK7 should be similar. To investigate how the chiral center influences the selectivity, we solved the crystal structure of the PARK7−JYQ-88 complex with 1.42 Å resolution (Figure 3G, Table S1, PDB 7PA3). The global positioning of the inhibitor in between the two α-helices was similar to that for 8RK64. […] This way, the thiazolo-pyridine part of JYQ-88 is bound in a similar manner as 8RK64 and the earlier observed interactions are largely the same. The formation of the isothiourea moiety, stabilized by the interaction with Glu18, and the interaction between the thiazole amine and the amide NH2 of the Asn76 side chain are still present. However, the interaction between the azidoacetyl carbonyl with the Leu128 backbone carbonyl can no longer be observed due to the rotation of the azidoacetyl moiety. The Lys132 residue also seems to have rotated (compared to Figure 2C).
The assay was performed in Tris buffer as described above.

[2] = target: T1, PARK7; assay: FP assay with Rhodamine110 probe JYQ-107 (IC50 and hit validation); assay type: binding; design: GST (N, cleaved yes); made in house; host or cells: E. coli BL21(DE3) Rosetta2; settings: PARK7 0.2 μM, 1 h preincubation, JYQ-107 20 nM
[3] = system: DUBs; assay: DUB activity profiling in HEK293T cell lysate with general DUB probe Rho-Ub-PA; assay type: biochemical; settings: compound 5 μM 1 h 37 °C, then Rho-Ub-PA 30 min, Figure S5
Description: Due to the structural similarity of PARK7 inhibitor JYQ-88 and UCHL1 inhibitor 8RK64 and the fact that many cyanimide-containing compounds have been identified as DUB inhibitors,[35],[37] we investigated the inhibitory potential of JYQ-88 and JYQ-92 toward DUBs. After treating the HEK293T cell lysate with JYQ-88 and JYQ-92, along with UCHL1 inhibitors, 6RK73 and 8RK64 as controls,[38] the remaining activity of DUBs was determined using the general DUB probe Rho-Ub-PA (Figure S5).[39]
Figure S5. Fluorescence labeling of DUBs to investigate their remaining activity by Rh-Ub-
PA after the treatment with PARK7 inhibitor JYQ-88 and probe JYQ-92. UCHL1 inhibitors,
6RK73 and 8RK64, were used as a control. HEK293T cell lysate was treated with 5 μM final
MOPS SDS running buffer (Novex, NuPAGE) and visualized by fluorescence scanning on a
Typhoon FLA 9500 (GE Healthcare Life Sciences) using a Rhodamine channel (λex/em
(1 picture or pasted object on this page, not shown here)

[4] = target: T1, PARK7; assay: DiFMUAc PARK7 activity assay; assay type: biochemical; design: GST (N, cleaved yes); made in house; host or cells: E. coli BL21(DE3) Rosetta2

For `N#CN1CC[C@@H](C(=O)Nc2nc3c(s2)CN(C(=O)CN=[N+]=[N-])CC3)C1` [JYQ-88, (R)-N-(5-(2-Azidoacetyl)-4,5,6,7-tetrahydrothiazolo[5,4-c]pyridin-2-yl)-1-cyanopyrrolidine-3carboxamide], the “Concentration at which clear inhibition of PARK7 is visible” value ([1]; PARK7 1 μM, serial dilution of inhibitor, then 8RK59, Figure 3C) was 0.5 µM, the “Inhibition of PARK7 (disappearance of 8RK59-labeled band)” value ([1]; compound 2 μM, 1 h, PARK7 and UCHL1 1 μM each, then 8RK59 2 μM 30 min, Figure 3B) was “almost complete inhibition” and the “Concentration from which PARK7 inhibition was observed” value ([1]; direct competition, equal amounts of PARK7 and UCHL1, Figure 3F) was 0.5 µM. The “Inhibitory potency toward PARK7 compared with 8RK64” value ([1]; gel-based PARK7 inhibition assays, Figures 3C and S2) was “slightly more potent”, the IC50 [2] was 240 nM and the “Effect on remaining DUB activity (Rho-Ub-PA labeled bands)” value [3] was “no influence on DUB activity; also recorded: without showing any effect”. For the same molecule, the IC50 ([4]; DiFMUAc assay, PARK7 0.1 μM, 1 h preincubation, DiFMUAc 300 μM) was 130 nM and the “Fold higher potency toward PARK7 than UCHL1” value ([4]; PARK7 IC50 (DiFMUAc) vs UCHL1 IC50) was 85 fold.
